Test results taken from patent US4148907A, “Stereoisomers of 1-(1'benzyl-2'pyrryl)-2-di-sec.-butylaminoethanol and pharmaceutical compositions comprising same” (Etablissement Viridis, priority 1976, dated 1979).

What was measured:
[1] = Acute toxicity (LD50), method of Litchfield and Wilcoxson; details: in vivo, ip
From the text: The acute toxicity values (LD50) have been determined by the method of Litchfield and Wilcoxson (J. Pharmacol. 1949, 96, 99) both for the new compounds of this invention and for VIMINOLO and the "R2 " Compound.

[2] = Therapeutic index (LD50/ED50 tail flick); assay type: in vivo; details: ratio of LD50/ED50, ED50 from the tail flick test
From the text: The superiority of new Compounds A and B is also evident from the therapeutic indexes which have been calculated as a ratio of LD50 /ED50' taking as the ED50 value that which is obtained by the tail flick test.

[3] = Analgesic activity, comparison in words (hot plate and tail flick data); assay type: in vivo; details: compared with VIMINOLO
Description: (§1) [α]436^20 (in methanol c= 2%): -48° C.±3° C. The analgesic activity (ED50) of isomers A and B has been determined via the hot plate test on mice (N/.B Eddy et Coll. J. Pharmacol. 98, 121, 1950) and via the "tail flick" test on rats (D'Amour and Smith; J. Pharmacol. 1941, 72, 74). The resulting values are set forth in the following Table and compared with the values given under identical conditions for VIMINOLO and the "R2 " Compound referred to hereinabove (Pharmacological Research Communications 8, 111 (1976)).

mice [4] = details: comparison values given under identical conditions (Pharmacological Research Communications 8, 111 (1976)); cited from earlier work
rats [5] = details: comparison values given under identical conditions (Pharmacological Research Communications 8, 111 (1976)); cited from earlier work
[6] = compared with other isomers, racemic compound or the disclosed class; cited from earlier work
mice [7] = assay: Hot plate test on mice (analgesic activity, ED50); assay type: in vivo; details: Mus musculus, sc
Description: as §1

rats [8] = assay: "tail flick" test on rats (analgesic activity, ED50); assay type: in vivo; details: Rattus norvegicus, sc
Description: as §1

Compound	LD50 [1] [mg/kg]	T.I. (therapeutic index) [2]	analgesic activity relative to VIMINOLO [3]	ED50 hot plate s.c (mice [4]) [mg/kg]	ED50 Tail Flick s.c. (rats [5]) [mg/kg]	analgesic activity (prior patents) [6]	ED50 (mice [7]) [mg/kg]	ED50 (rats [8]) [mg/kg]
CCC(C)N(CC(O)c1cccn1Cc1ccccc1Cl)C(C)CC (single isomer, unassigned) ["R2 " Compound]	230	324	surprisingly more active than VIMINOLO	1.15	0.71	much more active than the other isomers and also, more active than the corresponding racemic compound "VIMINOLO"		
CC[C@@H](C)N(CC(O)c1cccn1Cc1ccccc1F)[C@H](C)CC (single isomer, unassigned) [Isomer A]	384	872					0.65	0.44
CC[C@@H](C)N(CC(O)c1cccn1Cc1ccccc1C(F)(F)F)[C@H](C)CC (single isomer, unassigned) [Isomer B]	358	942					0.6	0.38
CCC(C)N(CC(O)c1cccn1Cc1ccccc1Cl)C(C)CC (stereo not drawn) [VIMINOLO, 1-[1'(o-chlorobenzyl)-2'-pyrryl]-2-di-sec.-butylaminoethanol]	167	13.36			12.5	most active compound within the disclosed class of aminoethanols		
